Assay results from ChEMBL document CHEMBL4627310, “Design, synthesis and biological evaluation of 3-nitro-1,8-naphthalimides as potential antitumor agents” (Bioorg Med Chem Lett, 2020).
The source made the active and inactive calls. No cut-off for these calls is given here.

Key:
T-24 [1] = assay: Induction of morphological changes in human T24 cells by AO/EB staining based assay; type: functional, cell-based
HepG2 [2] = assay: Anticancer activity against human HepG2 cells xenografted in mouse assessed as tumor inhibition rate at 5 mg/kg measured at day 14 relative to control; type: functional; conditions: HepG2, 336 h
HepG2 [3] = assay: Anticancer activity against human HepG2 cells xenografted in mouse assessed as tumor inhibition rate at 15 mg/kg measured at day 14 relative to control; type: functional; conditions: HepG2, 336 h
T-24 [4] = assay: Induction of apoptosis in human T24 cells assessed as […] of Bcl-2 expression at 2 to 8 uM by Western blot analysis; type: functional, cell-based
T-24 [5] = assay: Induction of cell cycle arrest in human T24 cells assessed as upregulation of gammaH2AX expression at 2 to 8 uM by Western blot analysis; type: functional, cell-based
HepG2 [6] = assay: Antiproliferative activity against human HepG2 cells assessed as cell growth inhibition measured after 48 hrs by MTT assay; type: functional, cell-based; conditions: HepG2, 48 h
T-24 [7] = assay: Anticancer activity against human T24 cells xenografted in mouse assessed as tumor growth inhibition by measuring T/C ratio at 15 mg/kg measured at day 14 relative to control; type: functional
T-24 [8] = assay: Induction of apoptosis in human T24 cells assessed as necrotic cells at 4.13 uM by AnnexinV/propidium iodide staining based flow cytometry (reference value: 0.1%); type: functional
T-24 [9] = assay: Induction of cell cycle arrest in human T24 cells assessed as upregulation of Wee1 expression at 2 to 8 uM by Western blot analysis; type: functional, cell-based
T-24 [10] = assay: Anticancer activity against human T24 cells xenografted in mouse assessed as tumor inhibition rate at 5 mg/kg measured at day 14 relative to control; type: functional; conditions: T-24, 336 h
T-24 [11] = assay: Induction of cell cycle arrest in human T24 cells assessed as upregulation of p21 expression at 2 to 8 uM by Western blot analysis; type: functional, cell-based
HepG2 [12] = assay: Anticancer activity against human HepG2 cells xenografted in mouse assessed as tumor growth inhibition by measuring T/C ratio at 15 mg/kg measured at day 14 relative to control; type: functional
T-24 [13] = assay: Induction of apoptosis in human T24 cells assessed as early apoptotic cells at 2.06 uM by AnnexinV/propidium iodide staining based flow cytometry (reference value: 0.7%); type: functional
T-24 [14] = assay: Antiproliferative activity against human T24 cells assessed as cell growth inhibition measured after 48 hrs by MTT assay; type: functional, cell-based; conditions: T-24, 48 h
T-24 [15] = assay: Induction of apoptosis in human T24 cells assessed as upregulation of cytosolic cytochrome-C expression at 2 to 8 uM by Western blot analysis; type: functional, cell-based
T-24 [16] = assay: Anticancer activity against human T24 cells xenografted in mouse assessed as tumor growth inhibition by measuring T/C ratio at 5 mg/kg measured at day 14 relative to control; type: functional
A549 = assay: Antiproliferative activity against human A549 cells assessed as cell growth inhibition measured after 48 hrs by MTT assay; type: functional, cell-based; conditions: A549, 48 h
T-24 [17] = assay: Induction of apoptosis in human T24 cells assessed as late apoptotic cells at 4.13 uM by AnnexinV/propidium iodide staining based flow cytometry (reference value: 0%); type: functional
T-24 [18] = assay: Induction of apoptosis in human T24 cells assessed as late apoptotic cells at 8.26 uM by AnnexinV/propidium iodide staining based flow cytometry (reference value: 0%); type: functional
T-24 [19] = assay: Induction of cell cycle arrest in human T24 cells assessed as upregulation of cyclin-B1 expression at 2 to 8 uM by Western blot analysis; type: functional, cell-based
T-24 [20] = assay: Cell cycle arrest in human T24 cells assessed as accumulation at G2/M phase at 4.13 uM measured after 24 hrs by propidium iodide staining based fluorescence analysis (reference value: 10.16%); type: functional
T-24 [21] = assay: Cell cycle arrest in human T24 cells assessed as accumulation at G2/M phase at 8.26 uM measured after 24 hrs by propidium iodide staining based fluorescence analysis (reference value: 10.16%); type: functional
T-24 [22] = assay: Induction of apoptosis in human T24 cells assessed as live cells at 2.06 uM by AnnexinV/propidium iodide staining based flow cytometry (reference value: 99.1%); type: functional
T-24 [23] = assay: Induction of cell cycle arrest in human T24 cells assessed as upregulation of cdc-2Ty expression at 2 to 8 uM by Western blot analysis; type: functional, cell-based
SK-OV-3 = assay: Antiproliferative activity against human SKOV3 cells assessed as cell growth inhibition measured after 48 hrs by MTT assay; type: functional, cell-based; conditions: SK-OV-3, 48 h
T-24 [24] = assay: Cell cycle arrest in human T24 cells assessed as accumulation at S phase at 4.13 uM measured after 24 hrs by propidium iodide staining based fluorescence analysis (reference value: 23.67%); type: functional
[25] = Toxicity in mouse xenografted with human T24 cells assessed as adverse effect at 5 to 15 mg/kg; type: organism-based, T-24; conditions: in vivo
[26] = Toxicity in mouse xenografted with human T24 cells assessed as effect on body weight at 5 to 15 mg/kg; type: organism-based, T-24; conditions: in vivo
T-24 [27] = assay: Induction of apoptosis in human T24 cells assessed as pycnosis by AO/EB staining based assay; type: functional, cell-based
T-24 [28] = assay: Induction of apoptosis in human T24 cells assessed as cell budding by AO/EB staining based assay; type: functional
T-24 [29] = assay: Cell cycle arrest in human T24 cells assessed as accumulation at G1 phase at 8.26 uM measured after 24 hrs by propidium iodide staining based fluorescence analysis (reference value: 66.18%); type: functional
HepG2 [30] = assay: Anticancer activity against human HepG2 cells xenografted in mouse assessed as tumor growth inhibition by measuring T/C ratio at 5 mg/kg measured at day 14 relative to control; type: functional
T-24 [31] = assay: Induction of apoptosis in human T24 cells assessed as membrane blebbing by AO/EB staining based assay; type: functional, cell-based
DNA = assay: Binding affinity to supercoiled circular Escherichia coli pBR322 DNA assessed as DNA intercalation at 20 to 100 uM by gel electrophoresis mobility shift assay; type: nucleic-acid assay
L02 = assay: Cytotoxicity against human HL7702 cells assessed as cell growth inhibition measured after 48 hrs by MTT assay; type: cell-based; conditions: L02, 48 h
T-24 [32] = assay: Cell cycle arrest in human T24 cells assessed as accumulation at G1 phase at 2.06 uM measured after 24 hrs by propidium iodide staining based fluorescence analysis (reference value: 66.18%); type: functional
[33] = Toxicity in mouse xenografted with human HepG2 cells assessed as effect on body weight at 5 to 15 mg/kg; type: organism-based; conditions: in vivo
T-24 [34] = assay: Induction of apoptosis in human T24 cells assessed as late apoptotic cells at 2.06 uM by AnnexinV/propidium iodide staining based flow cytometry (reference value: 0%); type: functional
T-24 [35] = assay: Induction of apoptosis in human T24 cells assessed as necrotic cells at 8.26 uM by AnnexinV/propidium iodide staining based flow cytometry (reference value: 0.1%); type: functional
T-24 [36] = assay: Cell cycle arrest in human T24 cells assessed as accumulation at G2/M phase at 2.06 uM measured after 24 hrs by propidium iodide staining based fluorescence analysis (reference value: 10.16%); type: functional
T-24 [37] = assay: Induction of apoptosis in human T24 cells assessed as live cells at 4.13 uM by AnnexinV/propidium iodide staining based flow cytometry (reference value: 99.1%); type: functional

## CNCCN1C(=O)c2cccc3cc([N+](=O)[O-])cc(c23)C1=O
T-24 [1]
  Activity: Active
HepG2 [2]
  inhibition in vivo at 5 mg/kg: 26.8%
HepG2 [3]
  inhibition in vivo at 15 mg/kg: 60%
T-24 [4]
  Activity: Active
T-24 [5]
  Activity: Active
HepG2 [6]
  IC50: 9.2 µM
T-24 [7]
  T/C: 38.4%
T-24 [8]
  Activity: 0.1%
T-24 [9]
  Activity: Active
T-24 [10]
  inhibition in vivo at 5 mg/kg: 30.1%
T-24 [11]
  Activity: Active
HepG2 [12]
  T/C: 38.6%
T-24 [13]
  Activity: 0.9%
T-24 [14]
  IC50: 4.13 µM
T-24 [15]
  Activity: Active
T-24 [16]
  T/C: 62.9%
A549
  IC50: 12.6 µM
T-24 [17]
  Activity: 0%
T-24 [18]
  Activity: 0%
T-24 [19]
  Activity: Active
T-24 [20]
  Activity: 82.11%
T-24 [21]
  Activity: 92.24%
T-24 [22]
  Activity: 98.8%
T-24 [23]
  Activity: Active
SK-OV-3
  IC50: 20.7 µM
T-24 [24]
  Activity: 7.99%
[25]
  Activity: Non-Toxic
[26]
  Activity: Non-Toxic
T-24 [27]
  Activity: Active
T-24 [28]
  Activity: Active
T-24 [29]
  Activity: 0.05%
HepG2 [30]
  T/C: 66.7%
T-24 [31]
  Activity: Active
DNA
  Activity: Active
L02
  IC50: 18.7 µM
T-24 [32]
  Activity: 50.17%
[33]
  Activity: Non-Toxic
T-24 [34]
  Activity: 0%
T-24 [35]
  Activity: 0%
T-24 [36]
  Activity: 30.01%
T-24 [37]
  Activity: 94.3%
